Data taken from patent publication US3975421A, “15-Substituted 11α-cyano-prostaglandins and related compounds” (American Home Products Corporation, priority 1974, dated 1976).

Tested on: adjuvant-induced arthritis in rats
Assay: adjuvant-induced arthritis in rats, per cent inhibition of paw swelling
Assay type: in vivo, rat
Conditions: 0.5 mg/kg s.c. daily for sixteen days, male rats
Text: In using the compounds of the invention to produce antiinflammatory effects in warm-blooded animals, they may be administered subcutaneously. The particular dosage to obtain the antiinflammatory effect will vary with the particular compound employed and the degree of antiinflammatory response desired. The antiinflammatory response produced upon subcutaneous administration can be observed by the method described by Newbould, B. B. in Brit. J. Pharm. Chemoth., 21, 127 (1963) and Rosenthale, M. E., and Nagra, C. L. in Proc. Soc. Exp. Biol. and Med., 125, 149 (1967). In this procedure, adjuvant-induced arthritis is induced in rats by injection of dead mycobacteria into the hind footpad. The test compound is administered subcutaneously daily for sixteen consecutive days beginning with the day of injection. The injected foot swells rapidly during the first 4 to 6 days. Thereafter, the swelling subsides until the 8th day, and then it resumes. About 4 to 10 days after injection, the other hind paw (un-injected) becomes swollen and other inflammatory nodules may be found in the ear and tail. The swelling of the injected paw at day 4 is taken as an indication of an acute inflammatory response. The swelling of the same paw at day 16 is taken as a delayed inflammatory response. The swelling of the other hind paw at day 16 is taken as a delayed hypersensitivity reaction. Active antiinflammatory compounds reduce the swelling in either the acute and/or the delayed phases. […] The percent protection against swelling, as compared to non-treated controls, is calculated and is used as a measure of antiinflammatory activity.
Male rats are randomly dispersed into groups. […] On day 4, the volume of the injected (right) foot is measured by means of a mercury plethysmograph. On day 16, the volumes of both the injected, right foot and the left hind foot are measured. The ability of the test compound to protect against acute and delayed swelling is measured by calculating the per cent decrease in volume of the test animals as compared to controls. […]

CCCCCC(C)(O)/C=C/[C@H]1[C@H](C#N)CC(O)[C@@H]1CCCCCCC(=O)O (stereo partly drawn) [3α-cyano-5(RS)-hydroxy-2β-[(3RS)-3-hydroxy-3-methyl-trans-1-octenyl]-1α-cyclopentaneheptanoic acid]
% Inhibition of Swelling, Day 4, Rt. Paw (injected right paw, day 4 (acute)): 25%
% Inhibition of Swelling, Day 16, Rt. Paw (injected right paw, day 16 (delayed)): 31%
% Inhibition of Swelling, Day 16, Left Paw (un-injected left paw, day 16 (delayed hypersensitivity)): 35%
